For data set [1], the target named is human PD-1 protein (Homo sapiens, UniProt Q15116). The data set is described as follows: Biacore binding on human PD-1 protein. Particulars: Biacore method. How it is done:
The binding of an exemplary humanized anti-PD-1 antibodies including Clone B and Clone E as shown in Table 1 on human PD-1 protein was measured using Biacore method.
(Surface plasmon resonance follows binding to a sensor surface in real time, without labels.)

Data set [2] is described as follows: Iso-electric focussing (Novex IEF) analysis. The class given is physicochemical. Particulars: estimated from staining positions against the IEF 3-10 marker. As for the experimental part:
Non-reduced samples of Protein A purified antibody were electrophoresed as described below.
5 μg of Protein A purified samples were electrophoresed on a 1.0 mm Novex pH 3-10 gradient gel (Invitrogen, EC66552BOX) using manufacturers recommended running conditions. A 10 μl aliquot of IEF pH 3-10 markers (Invitrogen, 39212-01) was included on the gel. Once electrophoresed, gels were fixed with 10% TCA solution for 30 min and then stained with InstantBlue (TripleRed, ISB01L) over night at room temperature. Images of the stained gels were analysed on a BioSpectrum Imaging System (UVP).

Data set [3] is described as follows: Pharmacokinetic (PK) modeling of flat dosing schedules.
Another data set has as its system TMD-8 cells (BTK). The experiment in a line: BTK-dependent TMD-8 cell proliferation assay. Particulars: Homo sapiens, TMD8, Cellular. The format is cell-based. How it is done: After 3 days, cell viability was measured using Cell Titer Glo.
A further data set relates to mouse B cells. The data set is described as follows: Mouse B cell proliferation assay. The format is cell-based. The following applies: Cellular. As for the experimental part: In the Mouse B cell assay, B cells are purified from mouse splenocytes and plated in the tissue culture plates with supplement of anti-IgM and m-IL4. […] After 3 days, cell viability was measured using Cell Titer Glo.

Data set [4] deals with T-cell dependent antibody response. The data set is described as follows: T-cell dependent antibody response (TDAR) assay with KLH. The following applies: for anti-KLH IgG mean percent difference compared to vehicle controls / anti-KLH IgM mean percent difference compared to vehicle controls: 30 mg/kg/day.
Data set [5] deals with TEC-family kinases (ITK, TEC, and TXK). The experiment in a line: Cellular IL-2 production assay in Jurkat cells. The class given is cell-based. Particulars: Homo sapiens, CD3/CD28 stimulation, read-out: IC50, IL2-Production. As for the experimental part: The cellular IL-2 Production assay was carried out using Jurkat cells. Upon CD3/CD28 stimulation overnight in the presence of various concentrations of compound, the IL-2 content in the conditioned media was measured by ELISA, and compound IC50 was determined.

A further data set addresses T1, TXK (Homo sapiens, UniProt P42681).
T1 sequence (P42681 1-527): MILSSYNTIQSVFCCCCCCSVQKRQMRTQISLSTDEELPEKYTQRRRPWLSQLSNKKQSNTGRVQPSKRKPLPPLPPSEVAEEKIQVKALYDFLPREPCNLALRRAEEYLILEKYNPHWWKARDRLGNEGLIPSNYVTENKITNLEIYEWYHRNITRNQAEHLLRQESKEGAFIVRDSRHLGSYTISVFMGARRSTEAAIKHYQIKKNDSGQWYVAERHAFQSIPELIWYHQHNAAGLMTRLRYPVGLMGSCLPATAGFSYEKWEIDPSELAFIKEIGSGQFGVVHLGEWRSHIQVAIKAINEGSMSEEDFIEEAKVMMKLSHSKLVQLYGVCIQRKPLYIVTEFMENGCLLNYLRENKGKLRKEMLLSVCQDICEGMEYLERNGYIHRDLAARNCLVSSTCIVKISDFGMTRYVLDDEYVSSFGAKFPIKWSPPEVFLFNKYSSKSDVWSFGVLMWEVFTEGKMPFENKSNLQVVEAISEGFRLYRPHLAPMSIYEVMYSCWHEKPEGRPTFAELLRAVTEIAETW
The data set is described as follows: TXK biochemical assay (Caliper LabChip).

A further data set addresses T2, TEC (Homo sapiens, UniProt P42680).
T2 sequence (P42680 1-631): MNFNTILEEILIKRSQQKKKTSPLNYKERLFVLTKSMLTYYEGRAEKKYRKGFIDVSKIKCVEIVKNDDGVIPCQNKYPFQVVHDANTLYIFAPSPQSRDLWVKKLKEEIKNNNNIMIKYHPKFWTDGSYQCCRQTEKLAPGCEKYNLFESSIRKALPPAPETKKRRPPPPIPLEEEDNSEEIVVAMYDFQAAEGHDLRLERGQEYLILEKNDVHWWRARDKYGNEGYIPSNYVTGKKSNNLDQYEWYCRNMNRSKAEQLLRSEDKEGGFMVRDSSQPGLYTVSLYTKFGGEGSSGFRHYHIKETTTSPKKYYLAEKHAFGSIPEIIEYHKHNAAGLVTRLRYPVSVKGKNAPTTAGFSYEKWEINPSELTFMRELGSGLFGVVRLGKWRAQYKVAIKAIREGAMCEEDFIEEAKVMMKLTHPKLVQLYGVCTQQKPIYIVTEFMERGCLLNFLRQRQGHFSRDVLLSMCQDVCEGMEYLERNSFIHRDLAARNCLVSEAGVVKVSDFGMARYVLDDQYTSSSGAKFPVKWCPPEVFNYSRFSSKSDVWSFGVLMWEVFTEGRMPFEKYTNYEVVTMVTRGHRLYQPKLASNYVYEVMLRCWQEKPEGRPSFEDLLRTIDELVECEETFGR
The experiment in a line: TEC biochemical assay (Caliper LabChip).

Data set [6] has as its system primary human CD4+ T cells. The experiment in a line: Human CD4 T cell proliferation assay. The following applies: Cellular. The class given is cell-based. How it is done:
In the Human CD4 T cell assay, primary human CD4+ T cells isolated from a leukopak were cultured in the presence of anti-CD3/anti-CD28 beads to stimulate T cell proliferation. After 4 days, cell viability was measured using Cell Titer Glo.

A further data set concerns mouse CD4+ T cells. The data set is described as follows: Mouse CD4 T cell proliferation assay. The format is cell-based. The following applies: Cellular.
The target of data set [7] is T3, human PD-1 expressed on 300.19 cells (human, UniProt Q15116 25-288).
T3 construct: whole, on cells; also called human PD-1-expressing 300.19 cells
The experiment in a line: blocking of PD-L1 binding on human PD-1-expressing 300.19 cells; competitor PD-L1.

The target of a further data set is cynomolgus PD-1 protein (cynomolgus, UniProt B0LAJ3 25-170). The data set is described as follows: Biacore, cynomolgus PD-1.
Data set [8] has as its target T4, human PD-1 protein (human, UniProt Q15116 25-167, limits assumed).
T4 construct: Soluble protein in the Biacore assay
The experiment in a line: Biacore, human PD-1 protein.

These results are taken from patent US20180177872A1, “Combination of PD-1 antagonist with an EGFR inhibitor” (priority 2015, published 2018).

What is called IC50 is the concentration that inhibits the measured activity by half.

human PD-1 protein (Homo sapiens, UniProt Q15116), sequence (Q15116 25-288): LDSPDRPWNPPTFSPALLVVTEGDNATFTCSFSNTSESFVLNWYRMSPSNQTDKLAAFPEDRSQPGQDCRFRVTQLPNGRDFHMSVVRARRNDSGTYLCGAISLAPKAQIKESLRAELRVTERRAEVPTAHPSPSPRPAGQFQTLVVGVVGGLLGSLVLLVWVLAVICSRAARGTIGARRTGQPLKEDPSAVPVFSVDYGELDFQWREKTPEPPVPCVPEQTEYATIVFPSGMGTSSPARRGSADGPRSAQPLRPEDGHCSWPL
T4 sequence (Q15116 25-167 limits assumed): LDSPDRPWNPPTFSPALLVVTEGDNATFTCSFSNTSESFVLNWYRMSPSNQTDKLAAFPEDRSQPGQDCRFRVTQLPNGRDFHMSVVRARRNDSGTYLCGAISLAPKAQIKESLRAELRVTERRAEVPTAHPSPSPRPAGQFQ
cynomolgus PD-1 protein, sequence (B0LAJ3 entry or part of it limits assumed): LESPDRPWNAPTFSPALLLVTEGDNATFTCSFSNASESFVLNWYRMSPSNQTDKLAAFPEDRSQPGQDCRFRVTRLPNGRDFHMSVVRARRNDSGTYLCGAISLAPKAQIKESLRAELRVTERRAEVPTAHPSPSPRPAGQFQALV
T3 sequence (Q15116 25-288): as the sequence (Q15116 25-288) above

In turn, “BAP049-Clone E: humanized anti-programmed death-1 (PD-1) IgG4 monoclonal antibody; sequences in Table 1” had a Ka in the data set with human PD-1 protein [1] of 278000 M⁻¹ s⁻¹. For the same molecule, in the data set with human PD-1 protein [1] (rate constant), the Kd turned out to be 0.000213 s⁻¹. In [2], the “Basic charge isoforms (pI)” value is reported as 7.55 and the “pI of predominant charge isoform” value was 7.5. For the same molecule, in data set [3] (46 patients in PK dataset), the Half-Life was 20 [17, 23] days; the “IIV of CL” value was 62%; the “IIV of Half-Life” value was 64%; the “IIV of Volume of distribution at SS” value is recorded as 22%. Also, the “Volume of distribution at SS” value in [3] (46 patients in PK dataset) was 7.2 [6.5, 7.9] L. Also, in [3] (flat dose), the “patients with Cmin above EC50” value is “Over 99.5%” and the “patients with Cmin above EC90” value is reported as “over 93%”. In data set [3] (flat dosing schedules, 46 patients in PK dataset), the CL is 10.9 [8.9, 13.2] mL/h.
As to `Cc1cc(C(=O)Nc2nc3cccc(Cl)c3n2[C@@H]2CCCCN(C(=O)/C=C/CN(C)C)C2)ccn1` [Compound A, (R,E)-N-(7-chloro-1-(1-(4-(dimethylamino)but-2-enoyl)azepan-3-yl)-1Hbenzo[d]imidazol-2-yl)-2-methylisonicotinamide], the IC50 in the data set on TMD-8 cells (BTK) turned out to be 224 nM; with mouse B cells, 295 nM; in [5] it was 21 nM; against TXK it was 2 nM; against TEC it was 0.9 nM; in [6], 140 nM. The same molecule displayed an IC50 in the data set on mouse CD4+ T cells of 107 nM. Besides, the “anti-KLH IgG mean percent difference compared to vehicle controls” value in data set [4] (female rats, study day 19) is listed as −96%; in [4] (female rats, study day 21), −98%; in [4] (female rats, study day 23), −97%; in [4] (female rats, study day 25) it was −96%; in data set [4] (female rats, study day 36), −69%; in [4] (male rats, study day 19) it was −78%. The “anti-KLH IgG mean percent difference compared to vehicle controls” value in data set [4] (male rats, study day 21) is −84%; in data set [4] (male rats, study day 23), −80%; in [4] (male rats, study day 25), −83%. The “anti-KLH IgM mean percent difference compared to vehicle controls” value is −88% in data set [4] (female rats, study day 19); −75% in [4] (female rats, study day 21); −71% in [4] (female rats, study day 23); −63% in data set [4] (female rats, study day 25); −67% in data set [4] (female rats, study day 36); −67% in [4] (male rats, study day 19). In addition, the “decrease of anti-KLH antibody production after withdrawal of treatment” value in [4] (male and female rats, recovery day 42 and 53) was “reversible”. The “IC50, TXK” value at TXK (Biochemical) is “single digit nM”. Besides, the “IC50, TEC” value on TEC (Biochemical) is given as “single digit nM”.

B1: BAP049-Clone-E (antibody, human IgG4 S228P, kappa, V domains shown)
VH: EVQLVQSGAEVKKPGESLRISCKGSGYTFTTYWMHWVRQATGQGLEWMGNIYPGTGGSNFDEKFKNRVTITADKSTSTAYMELSSLRSEDTAVYYCTRWTTGTGAYWGQGTTVTVSS
VL: EIVLTQSPATLSLSPGERATLSCKSSQSLLDSGNQKNFLTWYQQKPGQAPRLLIYWASTRESGVPSRFSGSGSGTDFTFTISSLEAEDAATYYCQNDYSYPYTFGQGTKVEIKR
notes: Humanized IgG4(S228P)/kappa; also called Antibody B; exemplary humanized anti-PD-1 antibody
The molecule B1 showed an IC50 in data set [7] of 0.94 nM. Moreover, the Kd with cynomolgus PD-1 protein was 0.093 nM; with human PD-1 protein [8] it was 0.0827 nM.
